By Tmax is commonly meant the time at which the peak concentration occurs. A word on the Cmax: it is the highest concentration seen after dosing. Usually pKi stands for the negative decadic logarithm of the Ki, by convention in mol/L. A higher pKi goes with a low Ki. What is called Vd/F is the volume of distribution divided by bioavailability. What is called AUC(0-t) is the area under the concentration-time curve up to a stated or last time point. Higher therefore signals more exposure. In general, IC50 refers to the concentration at which inhibition is half-maximal. The term Ki denotes a measure of affinity in units of concentration, obtained from inhibition or displacement. Low readings indicate higher affinity, high ones lower affinity. By microsomal CLint is commonly meant the rate of metabolic loss divided by the concentration.

The nature of data set [1]: Tmax in mouse hippocampus at 1.25 mg/kg, ip by LC/ESI-MS/MS analysis. The class given is ADME, organism-based.
Data set [2] in a line: Tmax in mouse striatum at 1.25 mg/kg, ip by LC/ESI-MS/MS analysis. In kind it is ADME, organism-based.
A short description of data set [3]: Cmax in mouse striatum at 1.25 mg/kg, ip by LC/ESI-MS/MS analysis. In kind it is ADME, organism-based. The arrangement: dose 1.25 mg/kg, route ip.
Data set [4] deals with T1, Adrenergic receptor alpha-1 (Homo sapiens, UniProt P35348+P25100+P35368).
T1 sequence (P35348 whole entry): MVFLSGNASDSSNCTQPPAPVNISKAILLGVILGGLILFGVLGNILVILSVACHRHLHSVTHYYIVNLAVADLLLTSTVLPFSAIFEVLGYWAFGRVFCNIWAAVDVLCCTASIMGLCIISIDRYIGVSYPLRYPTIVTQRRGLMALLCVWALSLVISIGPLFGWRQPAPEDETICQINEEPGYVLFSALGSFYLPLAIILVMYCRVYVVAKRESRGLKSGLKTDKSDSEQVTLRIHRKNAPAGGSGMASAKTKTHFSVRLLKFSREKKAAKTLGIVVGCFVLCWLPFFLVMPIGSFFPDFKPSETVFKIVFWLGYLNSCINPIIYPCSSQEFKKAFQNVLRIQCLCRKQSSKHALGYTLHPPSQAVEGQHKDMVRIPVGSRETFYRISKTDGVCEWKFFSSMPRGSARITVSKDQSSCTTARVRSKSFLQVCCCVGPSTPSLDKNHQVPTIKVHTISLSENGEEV
T1 sequence (P25100 whole entry): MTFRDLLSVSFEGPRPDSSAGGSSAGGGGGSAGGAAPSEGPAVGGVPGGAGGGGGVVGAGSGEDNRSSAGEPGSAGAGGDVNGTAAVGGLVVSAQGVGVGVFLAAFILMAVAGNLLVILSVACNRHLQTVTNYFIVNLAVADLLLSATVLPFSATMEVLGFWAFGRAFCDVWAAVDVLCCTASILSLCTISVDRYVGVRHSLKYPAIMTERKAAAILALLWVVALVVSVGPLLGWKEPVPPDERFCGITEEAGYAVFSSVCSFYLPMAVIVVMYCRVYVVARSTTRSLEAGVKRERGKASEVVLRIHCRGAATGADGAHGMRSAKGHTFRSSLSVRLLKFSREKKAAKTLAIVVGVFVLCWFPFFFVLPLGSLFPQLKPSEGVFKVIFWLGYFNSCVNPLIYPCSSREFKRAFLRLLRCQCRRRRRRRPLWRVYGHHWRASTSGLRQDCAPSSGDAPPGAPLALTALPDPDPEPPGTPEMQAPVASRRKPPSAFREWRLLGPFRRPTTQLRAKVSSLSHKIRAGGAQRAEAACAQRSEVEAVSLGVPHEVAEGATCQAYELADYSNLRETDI
T1 sequence (P35368 whole entry): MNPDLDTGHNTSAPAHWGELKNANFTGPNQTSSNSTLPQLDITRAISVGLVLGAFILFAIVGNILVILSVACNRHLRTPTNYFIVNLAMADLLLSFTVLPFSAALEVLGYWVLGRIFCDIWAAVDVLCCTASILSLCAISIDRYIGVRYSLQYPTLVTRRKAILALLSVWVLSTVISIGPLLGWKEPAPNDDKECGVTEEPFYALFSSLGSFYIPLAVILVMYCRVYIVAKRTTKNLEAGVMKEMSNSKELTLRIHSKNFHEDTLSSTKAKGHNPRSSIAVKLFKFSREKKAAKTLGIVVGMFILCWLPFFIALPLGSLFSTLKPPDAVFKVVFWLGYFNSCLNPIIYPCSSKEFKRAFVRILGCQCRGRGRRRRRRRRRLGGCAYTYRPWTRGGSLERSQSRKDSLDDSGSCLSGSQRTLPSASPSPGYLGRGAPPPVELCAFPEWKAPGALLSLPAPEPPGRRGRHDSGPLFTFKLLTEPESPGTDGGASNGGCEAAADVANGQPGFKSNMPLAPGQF
As to the kind of experiment: Binding affinity to adrenergic alpha 1 receptor (unknown origin). The class given is protein assay.

Data set [5] can be described thus: Apparent volume of distribution in mouse plasma at 1.25 mg/kg, ip measured up to 480 mins by LC/ESI-MS/MS analysis. In kind it is ADME, organism-based.
Data set [6] is described as follows: AUC(0 to t) in mouse striatum at 1.25 mg/kg, ip by LC/ESI-MS/MS analysis. The class given is ADME, organism-based. Also noted: dose 1.25 mg/kg, route ip.
The nature of data set [7]: AUC(0 to t) in mouse frontal cortex at 1.25 mg/kg, ip by LC/ESI-MS/MS analysis. The arrangement: dose 1.25 mg/kg, route ip. In kind it is ADME, organism-based.
The target in data set [8] is cAMP and cAMP-inhibited cGMP 3',5'-cyclic phosphodiesterase 10A (Homo sapiens, UniProt Q9Y233). As to the kind of experiment: Inhibition of PDE10A (unknown origin) preincubated for 20 mins followed by substrate addition and measured after 1 hr by PEDlight AMP detection reagent based luminescence assay.
Data set [9] addresses 5-hydroxytryptamine receptor 7 (Homo sapiens, UniProt P34969). The data set is described as follows: Displacement of [3H]-5-CT from human 5-HT7 receptor expressed in CHO-K1 cells membrane by scintillation counter analysis. The class given is cell membranes. On the technique in general: In a radioligand displacement assay an active substance lowers the binding of a labelled ligand.

For data set [10], the target named is 5-hydroxytryptamine receptor 2A (Homo sapiens, UniProt P28223). As to the kind of experiment: Binding affinity to 5HT-2A receptor (unknown origin).
Data set [11] in a line: Metabolic stability in human liver microsomes assessed as intrinsic clearance. For orientation: Microsomes from liver hold many membrane-bound enzymes, among them those of drug oxidation.
Data set [12] is described as follows: Tmax in mouse plasma at 1.25 mg/kg, ip measured up to 480 mins by LC/ESI-MS/MS analysis. The class given is ADME, organism-based.
For data set [13], the target named is D(2) dopamine receptor (Homo sapiens, UniProt P14416). The data set is described as follows: Binding affinity to dopamine D2 receptor (unknown origin).
Data set [14] in a line: Cmax in mouse hippocampus at 1.25 mg/kg, ip by LC/ESI-MS/MS analysis. The class given is ADME, organism-based. The arrangement: dose 1.25 mg/kg, route ip.
Data set [15] can be described thus: AUC(0 to t) in mouse plasma at 1.25 mg/kg, ip measured up to 480 mins by LC/ESI-MS/MS analysis. The class given is ADME, organism-based. Also noted: dose 1.25 mg/kg, time < 480 min, route ip. The note with it: in vivo, 8 h.
The nature of data set [16]: Tmax in mouse frontal cortex at 1.25 mg/kg, ip by LC/ESI-MS/MS analysis. The class given is ADME, organism-based.
Data set [17] is described as follows: Cmax in mouse frontal cortex at 1.25 mg/kg, ip by LC/ESI-MS/MS analysis. The class given is ADME, organism-based. Also noted: dose 1.25 mg/kg, route ip.
Data set [18] in a line: AUC(0 to t) in mouse hippocampus at 1.25 mg/kg, ip by LC/ESI-MS/MS analysis. The class given is ADME, organism-based. Also noted: dose 1.25 mg/kg, route ip.
Data set [19] can be described thus: Cmax in mouse plasma at 1.25 mg/kg, ip measured up to 480 mins by LC/ESI-MS/MS analysis. In kind it is ADME, organism-based. Also noted: time < 480 min, dose 1.25 mg/kg, route ip.

Molecules are shown by their SMILES.

Sequence of cAMP and cAMP-inhibited cGMP 3',5'-cyclic phosphodiesterase 10A (Q9Y233 whole entry): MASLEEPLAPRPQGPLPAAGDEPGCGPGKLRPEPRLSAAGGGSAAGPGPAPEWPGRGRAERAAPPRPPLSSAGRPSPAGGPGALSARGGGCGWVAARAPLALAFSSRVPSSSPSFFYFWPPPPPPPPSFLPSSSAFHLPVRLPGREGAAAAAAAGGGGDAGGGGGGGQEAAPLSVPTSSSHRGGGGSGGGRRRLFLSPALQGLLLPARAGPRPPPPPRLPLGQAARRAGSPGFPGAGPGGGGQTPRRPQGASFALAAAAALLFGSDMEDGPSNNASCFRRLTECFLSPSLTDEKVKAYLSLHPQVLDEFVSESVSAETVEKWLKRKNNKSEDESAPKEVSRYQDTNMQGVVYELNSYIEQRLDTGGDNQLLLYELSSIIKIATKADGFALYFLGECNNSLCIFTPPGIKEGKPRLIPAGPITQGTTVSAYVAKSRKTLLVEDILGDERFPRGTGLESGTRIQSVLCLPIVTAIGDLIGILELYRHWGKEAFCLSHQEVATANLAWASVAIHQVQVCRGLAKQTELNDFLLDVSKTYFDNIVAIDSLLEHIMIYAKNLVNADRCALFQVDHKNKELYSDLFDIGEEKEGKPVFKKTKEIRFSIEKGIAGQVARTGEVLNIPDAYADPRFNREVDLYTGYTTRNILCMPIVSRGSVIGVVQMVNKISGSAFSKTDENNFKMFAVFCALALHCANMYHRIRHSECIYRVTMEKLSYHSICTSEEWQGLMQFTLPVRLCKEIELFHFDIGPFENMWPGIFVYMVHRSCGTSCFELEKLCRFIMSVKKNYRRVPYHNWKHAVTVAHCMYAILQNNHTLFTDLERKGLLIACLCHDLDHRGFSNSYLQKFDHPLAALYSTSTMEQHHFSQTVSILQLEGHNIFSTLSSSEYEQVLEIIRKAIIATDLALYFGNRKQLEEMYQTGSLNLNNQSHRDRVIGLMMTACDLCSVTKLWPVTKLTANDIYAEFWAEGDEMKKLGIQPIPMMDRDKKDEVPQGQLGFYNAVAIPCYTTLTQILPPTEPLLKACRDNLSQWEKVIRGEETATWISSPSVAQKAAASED
Sequence of D(2) dopamine receptor (P14416 whole entry): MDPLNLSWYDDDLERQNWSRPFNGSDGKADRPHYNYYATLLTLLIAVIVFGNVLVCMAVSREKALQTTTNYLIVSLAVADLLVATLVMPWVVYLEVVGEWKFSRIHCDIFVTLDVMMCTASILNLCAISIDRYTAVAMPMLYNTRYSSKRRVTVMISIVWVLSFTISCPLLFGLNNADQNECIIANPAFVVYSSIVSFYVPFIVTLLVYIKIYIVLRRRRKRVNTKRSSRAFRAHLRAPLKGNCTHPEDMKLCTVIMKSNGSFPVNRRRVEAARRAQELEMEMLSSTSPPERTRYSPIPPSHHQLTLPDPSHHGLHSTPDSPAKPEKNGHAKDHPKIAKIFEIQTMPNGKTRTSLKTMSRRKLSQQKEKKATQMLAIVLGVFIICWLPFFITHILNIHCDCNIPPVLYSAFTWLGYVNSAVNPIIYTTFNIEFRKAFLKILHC
Sequence of 5-hydroxytryptamine receptor 7 (P34969 whole entry): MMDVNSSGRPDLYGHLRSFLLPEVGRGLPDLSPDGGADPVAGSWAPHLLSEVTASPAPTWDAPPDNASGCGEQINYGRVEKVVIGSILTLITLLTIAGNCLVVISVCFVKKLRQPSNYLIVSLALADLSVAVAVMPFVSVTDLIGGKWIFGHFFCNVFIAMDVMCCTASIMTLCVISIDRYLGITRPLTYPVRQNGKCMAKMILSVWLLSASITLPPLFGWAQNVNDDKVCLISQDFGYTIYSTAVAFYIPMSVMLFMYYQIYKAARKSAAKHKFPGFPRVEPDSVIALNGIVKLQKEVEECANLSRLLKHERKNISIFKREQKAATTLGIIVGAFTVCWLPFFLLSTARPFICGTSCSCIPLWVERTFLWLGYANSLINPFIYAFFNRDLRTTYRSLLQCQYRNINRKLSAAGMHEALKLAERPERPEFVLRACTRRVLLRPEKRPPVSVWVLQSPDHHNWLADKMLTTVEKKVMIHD
Sequence of 5-hydroxytryptamine receptor 2A (P28223 whole entry): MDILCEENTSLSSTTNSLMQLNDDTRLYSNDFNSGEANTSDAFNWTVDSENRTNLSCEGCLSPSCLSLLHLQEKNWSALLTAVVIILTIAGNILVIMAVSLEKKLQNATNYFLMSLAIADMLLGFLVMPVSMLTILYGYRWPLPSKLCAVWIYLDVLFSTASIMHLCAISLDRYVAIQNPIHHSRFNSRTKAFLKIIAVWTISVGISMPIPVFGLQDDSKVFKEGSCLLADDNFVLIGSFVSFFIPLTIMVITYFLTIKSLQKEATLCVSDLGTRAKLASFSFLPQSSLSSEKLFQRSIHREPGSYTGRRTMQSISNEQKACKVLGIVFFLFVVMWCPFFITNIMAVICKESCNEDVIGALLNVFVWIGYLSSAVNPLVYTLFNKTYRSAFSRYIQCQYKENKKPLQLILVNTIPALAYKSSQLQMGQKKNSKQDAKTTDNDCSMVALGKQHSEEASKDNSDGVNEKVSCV

`COc1cccc(N2CCN(CC3CCN(c4ncnc5cc(OC)c(OC)cc45)C3)CC2)c1` (centres undefined): the Tmax in [1] was 30 min; in data set [2], 30 min; in data set [12] it was 5 min; in data set [16], 15 min. The peak concentration (Cmax) in [3] came to 303 ng/mL; in data set [14] it was 436 ng/mL; in data set [17] it was 210 ng/mL; in [19] it was 13.3 ng/mL. The molecule further had a negative logarithm of the Ki (pKi) in data set [4] of 6.58. Besides, the Vd/F in data set [5] came out at 0.253 L/kg. For the same molecule, the AUC(0-t) in [6] was 438 ng·h/mL; in [7], 726 ng·h/mL; in data set [18], 906 ng·h/mL. In [8], the half-inhibitory concentration (IC50) was 7.08 µM. Moreover, the figures for the inhibition constant Ki in data set [9], in data set [10] and in [13] were 0.234 µM, above 1 µM and above 1 µM, respectively. Further, the microsomal CLint in data set [11] turned out to be 292 µL/min/mg. Moreover, in data set [15], the AUCt was determined as 1164 ng·min/mL.

For the origin of these results see ChEMBL document CHEMBL5143617 (Eur J Med Chem, 2022).
